Data on one compound can be found in US20120283293A1, “Methods of neuroprotection involving Prostaglandin E2 EP4 (PGE2 EP4) receptor activation” (The Board of Trustees of the Leland Stanford Junior …, priority 2011, published 2012).

In one assay the test system is BV-2 cells. The assay is described as follows: Griess assay of nitrite production (NOS activity) in LPS-treated BV-2 cells. In kind it is cell-based, murine. As to the method:
Nitric oxide synthase (NOS) activity was measured using the Griess assay to measure nitrite production (Promega, Madison, Wis.). BV-2 cells were plated at 5×10^4 cells/well in 24-well plates, allowed to reach 90% confluence, and incubated +/−LPS (10 ng/ml)+/−AE1-329 (1 nM-1 μM) or vehicle for 24 h. […] cell culture medium and nitrite standards ([…]) were transferred to a 96-well plate and mixed with 50 μl sulphanilamide solution and 50 μl NED solution. After a 10 min incubation at room temperature, absorbance was read at 530 nm on a SpectraMax M5 plate reader (Molecular Devices, Sunnyvale, Calif.). Experiments were repeated in triplicate.
Inflammatory stimuli such as LPS can activate microglia through the CD14/TLR4 receptor complex and induce the expression of pro-inflammatory enzymes and cytokines (Fassbender et al., 2004; Walter et al., 2007). LPS-induced inflammatory responses were tested in the absence and presence of pharmacologic activation of EP4 receptor with the selective EP4 agonist AE1-329. BV-2 cells were treated with LPS (10 ng/ml) in the presence or absence of the selective EP4 agonist AE1-329 (1 μM) for 6 h, and pro-inflammatory gene expression was measured using qPCR (see FIG. 2). […] In FIG. 2D, EP4 regulation of iNOS activity was investigated.
For orientation: Nitrite, measured by Griess reagent, commonly stands in for NO production.

A further assay has as its system primary human monocytes. The assay is described as follows: TNF-α and IL-6 ELISA in LPS-stimulated primary human monocytes. It is filed as cell-based. Conditions: LPS 100 ng/ml, AE1-329 100 nM, 6 hours. As to the method: Human monocyte derived macrophages were purchased from AllCells (Catalog #PB-MDM-001F: Frozen normal peripheral blood monocyte derived macrophages) and plated at a density of 23,000 cells per well in a 96 well plate. Two dilutions (1:5 and 1:10) were tested using anti-human IL6 and anti-human TNFα ELISA to measure concentrations of these two cytokines in pg/ml after 6 hours of stimulation with either vehicle alone, AE1-329 (100 nM), LPS, and LPS plus AE1-329 (100 nM).
Primary human monocytes were stimulated with either vehicle (PBS) alone, AE1-329 (100 nM), LPS (100 ng/ml), and LPS (100 ng/ml) plus AE1-329 (100 nM). Two dilutions (1:5 and 1:10) were tested using anti-human IL6 and anti-human TNF-α ELISA to measure concentrations of these two cytokines in pg/ml after 6 hours of stimulation.

For assay [1], the system named is plasma cytokine and chemokine levels. Nature of the assay: plasma multi-analyte analysis in LPS-stimulated mice. It is filed as in vivo, mouse. The settings on record: LPS 5 mg/kg i.p., AE1-329 300 μg/kg s.c. As to the method: The murine in vivo studies were conducted in accordance with the National Institutes of Health guidelines for the use of experimental animals and protocols were approved by the Institutional Animal Care and Use Committee. C57B6 EP4 floxed mice (Schneider et al., 2004) were kindly provided by Drs. Richard and Matthew Breyer (Vanderbilt University School of Medicine, Nashville, Tenn.), and C57B6 Cd11bCre mice (Boillee et al., 2006) were kindly provided by Dr. G. Kollias (Alexander Fleming Biomedical Sciences Research Center, Vari, Greece) and Dr. Donald Cleveland (UCSD, San Diego, Calif.). All mice were housed in an environment controlled for lighting (12 hour light/dark cycle), temperature, and humidity, with food and water available ad libitum. Cd11bCre:EP4f/f and Cd11bCre:EP4+/+ mice were generated by serial crosses of C57B6 Cd11bCre and EP4f/f and EP4+/+ lines. Male Cd11bCre: EP4f/f and Cd11bCre: EP4+/+ mice were treated with either saline or LPS (5 mg/kg intraperitoneally: n=5-8 per group, 13 months of age). 24 hours after injection, mice were euthanized and brain tissue was harvested and frozen at −80° C. For pharmacological experiments, C57B6 male mice (Jackson Laboratories, Bar Harbor, Me.; n=7 or 8 per group) received an injection of saline or LPS (5 mg/kg, i.p.+/−vehicle or AE1-329 ([…]) (Qin et al., 2007; Nagamatsu et al., 2006). Mice were euthanized 6 hours later, and brain tissue was harvested and frozen at −80° C. For collection of plasma, C57B6 male mice (n=5 per group) received an injection of saline or LPS (5 mg/kg, i.p.)+/−AE1-329 ([…].) or vehicle. […] Plasma was collected after centrifugation at 1000×g for 10 min at 4° C. and frozen at −80° C.
Plasma was analyzed using the Rodent MAP™ Antigens, Version 2.0 multi-analyte profile (Rules Based Medicine, Austin, Tex.) that screens a total of 59 blood secreted proteins using multiplex fluorescent immunoassay.
Data are presented as mean±standard error of the mean and analyzed using analysis of variance or Student's t test. Prism software (GraphPad Software, Inc. San Diego, Calif.) was used for statistical analyses. Data for Griess assays and quantitative Western analyses were analyzed using one-way or two-way ANOVA, followed by Newman-Keuls multiple comparison or Bonferroni posttest analysis, respectively. For plasma multi-analyte analysis, the concentrations of the 15 plasma proteins that reached statistical significance between LPS+vehicle versus LPS+AE1-329 cohorts were transformed to relative concentrations (Median Z-score). Cluster analysis (Gene Cluster3.0, University of Tokyo, Tokyo and Java TreeView 1.0.13, Alok Saldanda, Calif.) produced a separation of samples according to treatment group and protein levels in plasma. […]

Consider `COCc1ccccc1CC[C@H](O)/C=C/[C@H]1[C@H](O)CC(=O)[C@@H]1SCCCSCC(=O)O` [AE1-329], for which the “LPS-induced NO production, dose response” value in the assay on BV-2 cells (BV-2 cells, 1, 10, 100 and 1000 nM AE1-329, 24 hours) is on record as “dose-dependently reduced NO production”. The nitrite concentration with BV-2 cells (BV-2 cells, LPS 10 ng/ml + 10 nM AE1-329, 24 hours (LPS alone 21.76 μM)) is 6.57 µM. The “decrease of LPS-induced NO production (nitrite)” value in the assay on BV-2 cells (BV-2 cells, LPS 10 ng/ml, 10 nM AE1-329, 24 hours) worked out at 68.9%. Further, in the assay on primary human monocytes, the “LPS-induced increase in IL-6 levels (ELISA)” value is “significantly reduced” and the “LPS-induced increase in TNF-α levels (ELISA)” value is “entirely reversed”. Further, in assay [1] (3 hours), the “plasma levels of IL-10” value was “significantly increased plasma levels”; the “plasma levels of TNF-α, IL-1α, eotaxin, MDC, MIP-1α, MIP-1β, MIP-1γ, MIP-2, MCP-1, MCP-3 and MCP-5” value is “significantly decreased levels”; the plasma myeloperoxidase result was “reduced secreted levels”. The “plasma levels of IL-6 and LIF” value in assay [1] (printed 'at 6 h') was “trend towards decreased levels”.
